The numbers were not newly measured in patent US20020028808A1, “Use of potassium channel agonists for the treatment of cancer” (priority 2000, published 2002), which cites them from elsewhere.

The structures appear in SMILES notation. Like-named read-outs stand apart in the source and are kept apart here.

Series [1] concerns adipose tissue of Zucker rats.
Series [2] addresses T1, KATP-channels on pancreatic beta-cells (Homo sapiens, UniProt Q09428+Q14654).
T1 construct: KATP-channels on pancreatic beta-cells; host or cells: pancreatic beta-cells
Conditions: by activation of KATP-channels.

Series [3] relates to patients suffering from insulinoma and nesidioblastosis.

T1 sequence (Q09428 whole entry): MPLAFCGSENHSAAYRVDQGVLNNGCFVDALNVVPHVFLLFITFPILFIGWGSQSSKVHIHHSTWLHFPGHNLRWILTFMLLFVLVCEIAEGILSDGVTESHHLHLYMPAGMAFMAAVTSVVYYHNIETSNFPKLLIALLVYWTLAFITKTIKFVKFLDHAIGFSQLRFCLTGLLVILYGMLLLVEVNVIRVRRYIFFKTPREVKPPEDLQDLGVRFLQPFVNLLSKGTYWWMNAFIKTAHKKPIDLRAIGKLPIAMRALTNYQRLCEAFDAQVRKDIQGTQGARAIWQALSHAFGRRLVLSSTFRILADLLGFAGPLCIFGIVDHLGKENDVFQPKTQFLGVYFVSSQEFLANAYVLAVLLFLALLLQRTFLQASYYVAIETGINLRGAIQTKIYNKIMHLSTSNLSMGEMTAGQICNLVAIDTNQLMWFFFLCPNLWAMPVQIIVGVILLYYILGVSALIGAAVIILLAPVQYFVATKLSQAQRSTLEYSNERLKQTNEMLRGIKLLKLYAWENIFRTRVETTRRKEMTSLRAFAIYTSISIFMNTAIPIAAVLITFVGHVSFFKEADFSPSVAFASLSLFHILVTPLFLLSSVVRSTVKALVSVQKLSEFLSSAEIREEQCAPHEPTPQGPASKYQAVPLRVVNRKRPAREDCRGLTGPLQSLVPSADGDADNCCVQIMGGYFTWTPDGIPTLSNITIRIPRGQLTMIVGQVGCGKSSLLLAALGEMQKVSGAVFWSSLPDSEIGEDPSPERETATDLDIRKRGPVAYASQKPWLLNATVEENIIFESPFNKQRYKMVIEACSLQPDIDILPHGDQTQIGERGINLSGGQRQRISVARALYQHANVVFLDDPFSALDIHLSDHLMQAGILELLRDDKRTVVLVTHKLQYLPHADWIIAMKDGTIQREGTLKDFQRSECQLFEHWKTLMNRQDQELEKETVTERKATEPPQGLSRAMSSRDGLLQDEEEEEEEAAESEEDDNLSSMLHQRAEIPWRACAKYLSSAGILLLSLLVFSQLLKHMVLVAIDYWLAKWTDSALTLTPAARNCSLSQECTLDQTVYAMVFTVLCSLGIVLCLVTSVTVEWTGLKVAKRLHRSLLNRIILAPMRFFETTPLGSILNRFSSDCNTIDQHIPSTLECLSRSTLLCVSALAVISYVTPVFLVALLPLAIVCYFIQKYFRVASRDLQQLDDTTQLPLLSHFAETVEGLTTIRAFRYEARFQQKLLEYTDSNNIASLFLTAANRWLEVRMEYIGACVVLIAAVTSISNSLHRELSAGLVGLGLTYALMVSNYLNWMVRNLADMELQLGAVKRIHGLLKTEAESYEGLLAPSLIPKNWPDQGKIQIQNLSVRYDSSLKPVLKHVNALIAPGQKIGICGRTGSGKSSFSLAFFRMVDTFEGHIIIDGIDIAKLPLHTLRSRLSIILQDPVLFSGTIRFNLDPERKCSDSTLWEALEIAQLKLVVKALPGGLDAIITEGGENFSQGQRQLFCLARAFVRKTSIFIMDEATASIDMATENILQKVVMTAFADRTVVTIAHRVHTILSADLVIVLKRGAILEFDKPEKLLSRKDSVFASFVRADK
T1 sequence (Q14654 whole entry): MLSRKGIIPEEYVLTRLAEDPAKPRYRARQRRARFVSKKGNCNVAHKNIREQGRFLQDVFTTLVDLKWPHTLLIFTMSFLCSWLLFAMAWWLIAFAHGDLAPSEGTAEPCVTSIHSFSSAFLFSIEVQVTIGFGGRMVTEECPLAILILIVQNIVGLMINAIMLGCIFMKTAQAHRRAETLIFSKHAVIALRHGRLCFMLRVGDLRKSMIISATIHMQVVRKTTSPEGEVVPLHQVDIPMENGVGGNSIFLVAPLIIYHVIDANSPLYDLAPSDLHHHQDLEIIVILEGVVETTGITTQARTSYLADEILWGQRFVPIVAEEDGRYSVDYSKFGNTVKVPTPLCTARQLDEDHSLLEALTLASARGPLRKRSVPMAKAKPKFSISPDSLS

As for `CC1=Nc2ccc(Cl)cc2S(=O)(=O)N1` [diazoxide, 7-chloro-3-methyl-2H-1,2,4-benzothiadiazine 1,1-dioxide], the “glucose stimulated insulin release” value in the series on healthy individuals was “reduces glucose stimulated insulin release”. Besides, in series [1], the “leptin and lipid metabolising enzymes” value was “down-regulate leptin and lipid metabolising enzymes”. The insulin release entry in series [2] was “inhibit insulin release”. Besides, the abnormal hyperinsulinaemia result is “ameliorates the abnormal hyperinsulinaemia” in series [3] (nesidioblastosis (PHHI, persistent hyperinsulinaemia and hypoglycemia of infancy)); “ameliorates the abnormal hyperinsulinaemia” in series [3] (patients suffering from insulinoma).
